These results are taken from patent publication US12616688B2, “Cell glycocalyx protection effect of anisodamine” (priority 2020, dated 2026).

Holding throughout (type): cell-based, human
Assay [1] concerns hCMEC/D3 cell. Briefly: CCK-8 cell proliferation assay. The settings on record: under 50 μg/mL LPS, 24 h. Here is the method: Immortalized HBMVEC hCMEC/D3 was taken from the Beijing Beina Chuanglian Biotechnology Institute (BNBIO) in China. The hCMEC/D3 endothelial cell was cultivated with an endothelial cell culture medium (ECM; cat.1001, Sciencell, USA) at 37° C. and 5% CO2. Anisodamine hydrobromide was taken from the Chengdu First Pharmaceutical Co., Ltd., Chengdu, China. Anisodamine hydrobromide was dissolved in distilled water at 20 mg/mL, then a resulting solution was filtered through a 0.22 μm filter membrane, and anisodamine hydrobromide solutions with final concentrations of 10 μg/mL, 20 μg/mL, 40 μg/mL, and 80 μg/mL each were prepared with ECM. LPS was dissolved in distilled water at 2 mg/mL, and LPS solutions with concentrations of 1 μg/mL, 10 μg/mL, 20 μg/mL, 50 μg/mL, and 100 μg/mL each were prepared with ECM. The hCMEC/D3 cell was treated with LPS and anisodamine hydrobromide.
The cell proliferation was assayed by the CCK-8 method (C0042, Beyotime, China). 2,000 cells were inoculated into a 96-well plate, cultivated for 24 h, and then treated with LPS and anisodamine hydrobromide; and before the end of the experiment, a CCK8 assay solution was added, the plate was incubated for 1 h, and then the absorbance at 450 nm was determined by a microplate reader (Labsery K3 Touch, Thermo Fisher, USA).
(Tetrazolium assays rely on reduction of a dye to a coloured formazan, in cell work by metabolically active cells.)

Assay [2] has as its system glycocalyx HS and cadherin of hCMEC/D3 cell. Briefly: Immunofluorescence staining and confocal microscopy of HS and cadherin. The method, then:
2.1 Experimental Groups: Normal Control Group, LPS Treatment Group (50 μg/mL), Low-Concentration Administration Group (LPS 50 μg/mL+Anisodamine Hydrobromide 10 μg/mL), and High-Concentration Administration Group (LPS 50 μg/mL+Anisodamine Hydrobromide 20 μg/mL). 2.2 Immunofluorescence Staining and Confocal Microscopy
A cell was fixed and penetrated, then blocked with 2% goat serum, and labeled with a murine HS monoclonal antibody (mAb) (1:100, 10E4 epitope, AMS Biotechnology, UK), a rabbit cadherin polyclonal antibody (pAb) (1:100, A0734, Abclonal, China), an Alexa Fluor 488 goat anti-murine (1:400, A11001, Thermo Fisher) secondary antibody, and an Alexa Fluor 568 donkey anti-rabbit (1:400, A10042, Thermo Fisher) secondary antibody. The cell nucleus was labeled with DAPI. Mounting was conducted, and then the cell was detected under a confocal microscope at LSM710.

Another assay relates to hCMEC/D3 barrier. Briefly: Endothelial permeability assay (Transwell, FITC-dextran leakage). The following applies: for LPS-induced permeability relative to control group: 24 h. The method, then:
3.1 Experimental Groups: Which were the Same as in Example 2.
A cell (5×10^4 in 200 μL ECM) was inoculated into an upper well of Transwell (0.4 μm, Corning, USA), and 200 μL of ECM was added to a lower well; the Transwell was incubated for 3 d in a 37° C. and 5% CO2 incubator until a cell confluency was 90%; a medium in the upper well was replaced with 50 μg/mL LPS or anisodamine hydrobromide (10 μg/mL or 20 μg/mL)-free fresh ECM, and a medium in the lower well was replaced with fresh ECM; 24 h later, 10 μL of fluorescein isothiocyanate (FITC)-dextran (40 kDa; Cat. 46944, Sigma-Aldrich, USA) was added to the upper well; 40 min later, 100 μL of a medium was taken from the lower well, and fluorescence values at 490 nm and 525 nm were determined; and a leakage amount of FITC-dextran was calculated to assess the permeability of an endothelial cell layer.

Assay [3] has as its system hCMEC/D3 cell. Briefly: NO production assay. Here is the method:
4.1 Experimental Groups: Which were the Same as in Example 2.
A cell was pre-cooled with PBS, then ultrasonically disrupted and homogenized, and centrifuged at 16,000 g and 4° C. for 20 min, a resulting supernatant was collected, and a NO detection kit (Nanjing Jiancheng Institute of Biological Engineering A012) was used to determine the absorbance at 550 nm, thereby determining an NO level.

The mark [4] stands for this setting: LPS 50 μg/mL + anisodamine hydrobromide 10 μg/mL.
Setting [5] is: LPS 50 μg/mL + anisodamine hydrobromide 20 μg/mL.
Setting [6] is: LPS 50 μg/mL + anisodamine hydrobromide 10 or 20 μg/mL.

Each structure is given as a SMILES string.

`Br.CN1[C@H]2C[C@H](OC(=O)[C@H](CO)c3ccccc3)C[C@@H]1[C@@H](O)C2` [anisodamine hydrobromide, Anisodamine hydrobromide]: the cell proliferation entry in the assay on hCMEC/D3 cell [1] (anisodamine hydrobromide 20 μg/mL) is on record as “significantly increased the cell proliferation”; in the assay on hCMEC/D3 cell [1] (anisodamine hydrobromide 20 μg/mL, listed as anisodamine) it was “significantly improve the proliferation”; with hCMEC/D3 cell [1] (anisodamine hydrobromide 80 μg/mL), “significantly down-regulated the cell proliferation”; with hCMEC/D3 cell [1] (anisodamine hydrobromide 80 μg/mL, listed as anisodamine) it was “significantly inhibit the proliferation”. In addition, the “loss of cadherin and HS” value was “inhibit the loss of cadherin and HS” in assay [2] (setting [4]); “inhibit the loss of cadherin and HS” in assay [2] (setting [5]). The “integrity and width of a cell junction” value in assay [2] (setting [6]) is “restored the integrity and width of a cell junction”. Also, in assay [2] (compared with the control group and the 10 μg/mL anisodamine hydrobromide group (group not named, apparently 20 μg/mL)), the “cadherin level and HS coverage rate” value was “increased slightly, but not significantly”. The entries for the “LPS-induced permeability relative to control group” value in the assay on hCMEC/D3 barrier (setting [4]) and in the assay on hCMEC/D3 barrier (setting [5]) were 2.7 times and 2.6 times, respectively. In addition, the “permeability, anisodamine hydrobromide group vs control group” value with hCMEC/D3 barrier (setting [6]) is “no significant difference”. Also, the “LPS-induced NO production relative to control group” value in the assay on hCMEC/D3 cell [3] (setting [4]) came to 1.2 times. In addition, the “LPS-induced NO level” value in the assay on hCMEC/D3 cell [3] (LPS 50 μg/mL + anisodamine hydrobromide 10 μg/mL (second mention)) is “significantly reduced the LPS-induced NO level”.
